Assay results: ChEMBL document CHEMBL1155405, “Rigidified 2-aminopyrimidines as histamine H4 receptor antagonists: effects of substitution about the rigidifying ring” (Bioorg Med Chem Lett, 2010)
Blank lines part the entries; values can stand above or below the compound they belong to.

Tests used:
Histamine H4 receptor [1] = biological target: Histamine H4 receptor (Rattus norvegicus, UniProt Q91ZY1); experiment: Displacement of [3H]-histamine from rat histamine H4 receptor after 1 hr by liquid scintillation counting
Sequence of Histamine H4 receptor (Rattus norvegicus, UniProt Q91ZY1) (Q91ZY1 whole entry): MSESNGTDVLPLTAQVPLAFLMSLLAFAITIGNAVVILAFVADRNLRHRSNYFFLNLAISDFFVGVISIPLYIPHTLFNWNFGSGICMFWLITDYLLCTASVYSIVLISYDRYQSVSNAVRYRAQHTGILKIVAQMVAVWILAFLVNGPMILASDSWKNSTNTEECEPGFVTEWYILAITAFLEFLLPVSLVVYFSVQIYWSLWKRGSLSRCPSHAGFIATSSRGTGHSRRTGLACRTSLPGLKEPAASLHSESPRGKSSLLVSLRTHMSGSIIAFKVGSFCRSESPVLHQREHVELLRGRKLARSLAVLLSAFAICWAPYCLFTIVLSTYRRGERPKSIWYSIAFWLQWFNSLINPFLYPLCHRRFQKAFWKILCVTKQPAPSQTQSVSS

Histamine H4 receptor [2] = biological target: T1, Histamine H4 receptor (Homo sapiens, UniProt Q9H3N8); settings: HEK293
Histamine H4 receptor [3] = biological target: T1, Histamine H4 receptor; experiment: Displacement of [3H]-histamine from human histamine H4 receptor expressed in HEK293 cells after 1 hr by liquid scintillation counting; assay type: cell-based
[4] = biological target: Histamine H4 receptor (Rattus norvegicus) (UniProt Q91ZY1); experiment: Antagonist activity at rat histamine H4 receptor assessed as decrease in intracellular calcium by FLIPR; assay type: functional, cell-based
Sequence of Histamine H4 receptor (Rattus norvegicus) (Q91ZY1 whole entry): as above

[5] = biological target: Histamine H4 receptor (Rattus norvegicus) (UniProt Q91ZY1); experiment: Antagonist activity at rat histamine H4 receptor assessed as decrease in intracellular calcium by FLIPR relative to histamine; assay type: functional, cell-based; set-up: concentration or dose not given beside the values
[6] = Lipophilicity, log D at pH7.5; assay type: physicochemical; settings: buffer, pH 7.5
Mus musculus = experiment: Inhibition of clobenpropit-induced scratching in hind paw of ip dosed mouse administered 30 mins before; assay type: functional
[7] = biological target: T2, Histamine H4 receptor (Mus musculus) (UniProt Q91ZY2); experiment: Antagonist activity at mouse histamine H4 receptor assessed as decrease in intracellular calcium by FLIPR; assay type: functional, cell-based
T2 sequence (whole entry): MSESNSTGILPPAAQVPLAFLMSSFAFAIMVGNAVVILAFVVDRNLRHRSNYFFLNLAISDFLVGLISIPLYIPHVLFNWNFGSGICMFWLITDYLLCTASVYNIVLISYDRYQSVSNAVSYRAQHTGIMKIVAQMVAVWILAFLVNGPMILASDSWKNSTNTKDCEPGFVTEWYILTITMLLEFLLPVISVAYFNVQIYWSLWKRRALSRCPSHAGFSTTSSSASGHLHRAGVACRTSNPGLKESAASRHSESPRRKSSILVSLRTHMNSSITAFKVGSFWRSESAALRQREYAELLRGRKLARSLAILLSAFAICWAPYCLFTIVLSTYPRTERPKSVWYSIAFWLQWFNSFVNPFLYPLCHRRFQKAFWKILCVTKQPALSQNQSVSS

Histamine H3 receptor [8] = biological target: Histamine H3 receptor (Rattus norvegicus, UniProt Q9QYN8); experiment: Displacement of [3H]NAMH from rat histamine H3 receptor expressed in C6 cells after 1 hr by liquid scintillation counting; assay type: cell-based
Sequence of Histamine H3 receptor (Rattus norvegicus, UniProt Q9QYN8) (Q9QYN8 whole entry): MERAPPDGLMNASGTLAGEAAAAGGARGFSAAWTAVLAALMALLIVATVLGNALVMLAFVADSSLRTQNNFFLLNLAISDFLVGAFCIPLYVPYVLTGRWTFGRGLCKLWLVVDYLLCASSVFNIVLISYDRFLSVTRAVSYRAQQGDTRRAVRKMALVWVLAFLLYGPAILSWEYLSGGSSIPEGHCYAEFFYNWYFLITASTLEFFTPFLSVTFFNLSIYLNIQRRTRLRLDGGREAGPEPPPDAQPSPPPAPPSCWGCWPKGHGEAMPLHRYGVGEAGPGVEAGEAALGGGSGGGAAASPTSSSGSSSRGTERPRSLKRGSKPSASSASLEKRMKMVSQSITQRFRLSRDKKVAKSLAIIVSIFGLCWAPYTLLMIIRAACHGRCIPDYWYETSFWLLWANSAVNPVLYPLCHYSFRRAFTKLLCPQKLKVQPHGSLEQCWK

Histamine H3 receptor [9] = biological target: Histamine H3 receptor (Homo sapiens, UniProt Q9Y5N1); experiment: Displacement of [3H]NAMH from human histamine H3 receptor expressed in C6 cells after 1 hr by liquid scintillation counting; assay type: cell-based
Sequence of Histamine H3 receptor (Homo sapiens, UniProt Q9Y5N1) (Q9Y5N1 whole entry): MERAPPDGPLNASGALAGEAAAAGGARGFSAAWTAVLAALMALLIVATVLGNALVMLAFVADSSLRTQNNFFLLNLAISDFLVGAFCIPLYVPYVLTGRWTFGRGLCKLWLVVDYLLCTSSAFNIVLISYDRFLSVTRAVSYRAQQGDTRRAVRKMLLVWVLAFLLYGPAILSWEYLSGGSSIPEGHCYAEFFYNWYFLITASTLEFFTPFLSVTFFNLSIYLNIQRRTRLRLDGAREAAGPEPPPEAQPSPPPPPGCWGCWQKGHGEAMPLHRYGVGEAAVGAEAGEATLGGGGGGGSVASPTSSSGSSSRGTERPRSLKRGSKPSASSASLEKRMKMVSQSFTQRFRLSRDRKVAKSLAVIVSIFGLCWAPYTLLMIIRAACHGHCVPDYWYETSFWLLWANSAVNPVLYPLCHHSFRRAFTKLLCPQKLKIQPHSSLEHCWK

Histamine H4 receptor [10] = biological target: T1, Histamine H4 receptor; experiment: Agonist activity at human histamine H4 receptor expressed in HEK293 cells coexpressing Galphaqi5 assessed as increase in intracellular calcium by FLIPR relative to histamine

SMILES: COC(=O)C1(N)CCN(c2nc(N)nc3c2CCCC32CCCC2)CC1
pKb (Histamine H4 receptor [2]): 4.9
pKb [4]: 4.77
Activity [5]: 52%

SMILES: Nc1nc(N2C[C@H]3CNC[C@H]3C2)c2c(n1)C1(CCCC1)CCC2 (stereo in doubt; 33)
pKb (Histamine H4 receptor [2]): 5.96
pKb [4]: 5.13
Activity [5]: 53%

SMILES: CN1CCC(Nc2nc(N)nc3c2CCCC32CCCC2)CC1
pKb (Histamine H4 receptor [2]): 7.66
pKb [4]: 6.9
Activity [5]: 84%

SMILES: Nc1nc(N2CC(N)C2)c2c(n1)C1(CCCC1)CCC2
pKb (Histamine H4 receptor [2]): < 4.16
pKb [4]: 4.63
Activity [5]: 48%

SMILES: CN1CCC(Oc2nc(N)nc3c2CCCC32CCCC2)CC1
pKb (Histamine H4 receptor [2]): 7.7
pKb [4]: < 5.48
Activity [5]: 86%

SMILES: CN[C@@H]1CCN(c2nc(N)nc3c2CCCC32CCCC2)C1
Ki (Histamine H4 receptor [1]): 2.63 nM
pKb (Histamine H4 receptor [2]): 8.54
pKb [4]: 7.48
Ki (Histamine H4 receptor [3]): 2 nM
Ki (Histamine H3 receptor [8]): 72.4 nM
Ki (Histamine H3 receptor [9]): 105 nM
Activity [5]: 58%

SMILES: Nc1nc(N2CC[C@@H](N)C2)c2c(n1)C1(CCCC1)CCC2
pKb (Histamine H4 receptor [2]): 8.57
pKb [4]: 6.76
ED50 (Mus musculus): 1 µmol/kg
Ki (Histamine H3 receptor [8]): 79.4 nM
pKb [7]: 7.82
Ki (Histamine H3 receptor [9]): 295 nM
Activity [5]: 71%

SMILES: CN(C)CCOc1nc(N)nc2c1CCCC21CCCC1
pKb (Histamine H4 receptor [2]): 8.11
pKb [4]: < 6
Activity [5]: 88%

SMILES: Nc1nc(N2C[C@H]3CNC[C@H]3C2)c2c(n1)C1(CCCC1)CCC2 (stereo in doubt; 34)
pKb (Histamine H4 receptor [2]): 5.99
pKb [4]: 5.65
Activity [5]: 48%

SMILES: Nc1nc(N2C[C@H]3CCCN[C@H]3C2)c2c(n1)C1(CCCC1)CCC2
pKb (Histamine H4 receptor [2]): 8.07
pKb [4]: < 6.6
Activity [5]: 35%

Further lines, with some results ahead:

Ki (Histamine H4 receptor [1]): 2.69 nM
pKb (Histamine H4 receptor [2]): 7.59
Ki (Histamine H4 receptor [3]): 7.08 nM
SMILES: Nc1nc2c(c(N3CC4CCCNC4C3)n1)CCCCC2c1ccccc1 (stereo not given)

pKb (Histamine H4 receptor [2]): 7.33
pKb [4]: < 4.96
Activity [5]: 84%
SMILES: Nc1nc(N2CC[C@@H](N)C2)c2c(n1)C1(CCCCC1)CCC2

logD [6]: 2.2
pKb (Histamine H4 receptor [2]): 8.56
pKb [4]: 5.42
Activity [5]: 87%
SMILES: Nc1nc(N2CCNCC2)c2c(n1)C1(CCCC1)CCC2

pKb (Histamine H4 receptor [2]): 8.01
pKb [4]: < 5.32
Activity [5]: 77%
SMILES: Nc1nc(N2CCCNCC2)c2c(n1)C1(CCCC1)CCC2

pKb (Histamine H4 receptor [2]): 6.3
pKb [4]: 6.09
SMILES: Nc1nc(N2CC[C@@H](N)C2)c2c(n1)C1(CCC2)Cc2ccccc2C1

pKb (Histamine H4 receptor [2]): 7.88
pKb [4]: 8.24
pKb [7]: 7.9
SMILES: Nc1nc2c(c(N3C[C@H]4CCCN[C@H]4C3)n1)CCCCC2c1ccccc1 (stereo not given in full)
ED50 (Mus musculus): 3 µmol/kg

logD [6]: 2.05
SMILES: CNC1CN(c2nc(N)nc3c2CCCCC3c2ccccc2)C1 (stereo not given)

Ki (Histamine H4 receptor [1]): 1.45 nM
logD [6]: 1.6
pKb (Histamine H4 receptor [2]): 8.34
pKb [4]: 7.6
Ki (Histamine H4 receptor [3]): 1.51 nM
Ki (Histamine H3 receptor [8]): 6.76 nM
Ki (Histamine H3 receptor [9]): 63.1 nM
Activity [5]: 46%
SMILES: CNC1CN(c2nc(N)nc3c2CCCC32CCCC2)C1

pKb (Histamine H4 receptor [2]): 7
pKb [4]: 5.81
Activity [5]: 50%
SMILES: Nc1nc(N2C[C@H]3CCCN[C@H]3C2)c2c(n1)C1(CCCCC1)CCC2

pKb (Histamine H4 receptor [2]): < 4.67
pKb [4]: < 4.68
SMILES: Nc1nc(N2CCC(N)(C(=O)O)CC2)c2c(n1)C1(CCCC1)CCC2

Ki (Histamine H3 receptor [8]): 105 nM
Ki (Histamine H3 receptor [9]): 224 nM
SMILES: CN[C@@H]1CCN(c2nc(N)nc3c2CCCC(c2ccccc2)C3)C1 (stereo not given in full)

pKb (Histamine H4 receptor [2]): 7.28
pKb [4]: 6.87
Activity [5]: 63%
SMILES: Nc1nc(N2CC[C@H](N)C2)c2c(n1)C1(CCCC1)CCC2

pKb (Histamine H4 receptor [2]): 4.57
pKb [4]: 4.86
Activity (Histamine H4 receptor [10]): 49%
Activity [5]: 135%
SMILES: Nc1nc(N2CCNCC2)c2c(n1)C1(CCC2)Cc2ccccc2C1

logD [6]: 1.73
pKb (Histamine H4 receptor [2]): 7.24
pKb [4]: 7.26
Ki (Histamine H3 receptor [8]): 661 nM
pKb [7]: 7.34
Ki (Histamine H3 receptor [9]): 2240 nM
SMILES: Nc1nc2c(c(N3CCNCC3)n1)CCCCC2c1ccccc1 (stereo not given)
ED50 (Mus musculus): 10 µmol/kg

pKb (Histamine H4 receptor [2]): 7.32
pKb [4]: < 4.86
Activity [5]: 105%
SMILES: Nc1nc(N2CCNCC2)c2c(n1)C1(CCCCC1)CCC2
